Patent publication US20260256755A1, “COMBINATIONS FOR TREATMENT OF PARKINSON'S DISEASE AND OTHER PRIMARY AND SECONDARY PARKINSONIAN DISORDERS” (Kenai Therapeutics, Inc., priority 2023, published 2026)

Tests used:
cerebral cortex = test: Example 5: cortical lesion study, neuroprotection and inflammation; format: in vivo, long evans hooded rats; conditions: injected with DA neural cells
From the text: Animals, Surgery, and histology: lesion studies will be conducted on 15 long evans hooded rats weighing 225-275 g. Twelve of these rats will be deeply anesthetized 10 with ketamine/xylazine and placed in a sterotaxic holder. A 4×2 mm (rostrocaudal×mediolateral) skull opening will be made on the right side starting just behind the coronal suture and centered at a mediolateral position of +2.5 mm relative to bregma. A dissecting knife will be penetrated through the dura and cortex in the center of this skull opening to a depth of 1 mm. The skull defect will be filled with bone wax, the skin sutured closed, and the animal placed on a heating pad. Twenty minutes later, 0.4 cc of solution containing 100 μg of 20 peptide (^~0.4 mg/kg, 6 rats) or DMEM vehicle (6 rats) will be injected under the skin of the shoulder near the midline. The rats will be perfused 4 days later and their brains processed for histology and immunohistochemistry as in previous studies. Three rats will be sacrificed without surgery or treatment. […] The density of ED-1+ ameboid microglia in the perilesion parencyma wound will be calculated after experimentally blinded counting of 4 fields (dorsal and ventral margins of the wound) in 2 sections through the lesion.

microglia = conditions: cited from earlier work
DA neural cells = test: Example 2: stress test, medium change followed by serum deprivation; format: cell-based; conditions: concentrations of 0.1 and 0.01 μM
From the text: DA neural cell survival will be measured by either counting surviving attached DA neural cells or by colorimetric determination after applying an electrocoupling reagent that responds to chemical reactions in normal cellular respiration.

PGC-1a = test: upregulation of PGC-1a, mode of action relevant to dopaminergic cells; format: cell-based; conditions: for ability to upregulate PGC-1a: target relevant to dopaminergic cells and Parkinson's disease

FC(F)(F)c1ccc(CNc2ccc(Cc3c[nH]c4ncc(Cl)cc34)cn2)cn1 [Pexidartinib]
accumulation of inflammatory cells in the parenchyma (cerebral cortex): inhibited
disruption of the cerebral cortex (cerebral cortex): inhibited
depletion of the microglia population (microglia; healthy brain): fast depletion of the microglia population
survival of microglia (microglia; in vivo): inhibit the survival of microglia
rescue of DA neural cells (DA neural cells): rescue DA neural cells

CC(C)(Oc1ccc(CCNC(=O)c2ccc(Cl)cc2)cc1)C(=O)O [benzafibrate]
ability to upregulate PGC-1a (PGC-1a): unable to upregulate PGC-1a

CCOC(=O)C(C)(C)Oc1ccc(Cl)cc1 [clorofibrate]
ability to upregulate PGC-1a (PGC-1a): unable to upregulate PGC-1a

CC(C)OC(=O)C(C)(C)Oc1ccc(C(=O)c2ccc(Cl)cc2)cc1 [fenofibrate]
activity (active or not) (PGC-1a; mode of action relevant to dopaminergic cells and Parkinson's disease): active
